Experimental findings from US20120214802A1, “PYRROLIDINE COMPOUNDS WHICH INHIBIT BETA-SECRETASE ACTIVITY AND METHODS OF USE THEREOF” (priority 2009, published 2012) are described below.

Usually IC50 stands for the concentration at which inhibition is half-maximal.

Data set [1] has as its target memapsin 2 (Homo sapiens, UniProt P56817). Briefly: Inhibition of memapsin 2 beta-secretase activity (fluorogenic substrate FS-2). Format: biochemical. Conditions: pH 4, 37° C., read-out: M2 Ki. The essentials: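 Memapsin 2 pre-incubated with compound for 20 min at pH 4, 37° C. Reaction started with fluorogenic substrate FS-2, […], derived from Swedish-variant APP beta-secretase site; inhibition measured from fluorescence.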

A further data set concerns the target cathepsin D (Homo sapiens, UniProt P07339). In words: Inhibition of cathepsin D activity (MALDI-TOF, substrate ELDLAVEFWHDR). Format: biochemical. Conditions: substrate peptide ELDLAVEFWHDR, pH 4.1, 37 degrees C, read-out: CD Ki. The procedure: [The source words this procedure for another target and reports this target under the same test.] A substrate peptide NH3-ELDLAVEFWHDR-CO2 (SEQ ID NO.: 1) was dissolved at 2 mg/mL in 10% glacial acetic acid and diluted into 0.009M NaOH to obtain μM concentration at pH 4.1. After equilibration at 37 degrees C., the reactions were initiated by the addition of an aliquot of memapsin 2. Aliquots were removed at time intervals, and combined with an equal volume of MALDI-TOF matrix (α-hydroxycinnamic acid in acetone, 20 mg/mL) and immediately spotted in duplicate onto a stainless-steel MALDI sample plate. MALDI-TOF mass spectrometry was performed on a PE Biosystems Voyager DE. The instrument was operated at 25,000 accelerating volts in positive mode with a 150 ns delay. Ions with a mass-to-charge ratio (m/z) were detected in the range of 650-2000 atomic mass units. Data were analyzed by the Voyager Data Explorer module to obtain ion intensity data for mass species of substrates and corresponding products in a given mixture. Relative product formation was calculated as the ratio of signal intensity of the product to the sum of signal intensities of both product and the corresponding substrate. Relative product formed per unit time was obtained from non-linear regression analysis of the data representing the initial 15% formation of product using the model:
where k was the relative hydrolytic rate constant and T was time in seconds. Initial rates were expressed relative to uninhibited controls and fit to a tight-binding model of competitive inhibition as above.

Data set [2] has as its target T1, memapsin 2 (Cricetulus griseus, UniProt G3IAK4).
T1 construct: endogenous in cells; host or cells: Chinese hamster ovary cells over-expressing human APP695 (London + Swedish)
In words: Cellular Aβ IC50 determination (Aβ40 sandwich ELISA). The data set is classed as cell-based, Chinese hamster. Conditions: CHO cells over-expressing human APP695 with London and Swedish mutations, 24 h, read-out: M2 IC50. The essentials:
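CHO cells overexpressing human APP695 (London and Swedish mutations) treated 48 h post-seeding with serially diluted compounds (top near 4 μM, 0.4% DMSO), 24 h at 37° C, 5% CO2. Medium Aβ40 measured by sandwich ELISA; levels relative to control fitted to 4-parameter IC50 model.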
For orientation: An ELISA detects its analyte on a solid surface through an enzyme-linked reagent.

Another data set deals with T2, CYP3A4 (Homo sapiens, UniProt P08684).
T2 construct: host or cells: human liver microsomes
T2 sequence (P08684 whole entry): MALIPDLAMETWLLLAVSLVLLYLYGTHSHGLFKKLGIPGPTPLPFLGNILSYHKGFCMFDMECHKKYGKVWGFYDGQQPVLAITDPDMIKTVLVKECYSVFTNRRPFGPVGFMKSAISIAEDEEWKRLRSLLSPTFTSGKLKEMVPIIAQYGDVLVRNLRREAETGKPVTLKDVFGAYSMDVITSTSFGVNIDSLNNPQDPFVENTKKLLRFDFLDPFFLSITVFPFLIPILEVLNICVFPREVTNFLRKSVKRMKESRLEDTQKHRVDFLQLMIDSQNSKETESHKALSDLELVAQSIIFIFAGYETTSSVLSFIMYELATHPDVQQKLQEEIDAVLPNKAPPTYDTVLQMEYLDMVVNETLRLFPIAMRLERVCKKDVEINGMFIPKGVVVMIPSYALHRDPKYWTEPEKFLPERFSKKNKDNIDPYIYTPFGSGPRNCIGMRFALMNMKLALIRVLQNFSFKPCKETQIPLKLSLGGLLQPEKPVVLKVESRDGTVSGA
In words: CYP3A4 inhibition (midazolam metabolism in human liver microsomes). Format: in vitro ADME. Conditions: substrate midazolam, read-out: CYP 3A4Ki. A digest of the protocol:
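Human liver microsomes (0.1 mg/mL) with midazolam at 1.25–10 μM and compound at 0.078–10 μM, in 100 mM phosphate pH 7.4 with NADPH regeneration at 37.2 °C, sampled at 20, 30 and 40 min. 1′-Hydroxymidazolam was quantified by LC-MS/MS. Ki was obtained by Dixon plots across substrate concentrations.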
Background: Microsomes from liver hold many membrane-bound enzymes, among them those of drug oxidation.

Data set [3] in a line: Hepatic intrinsic clearance in liver microsomes. Format: in vitro ADME. Conditions: human, pH 7.4, human liver microsomes, in vitro clearance, read-out: HLM CL. As for the experimental part: To 500 μl of 200 mM Na^+K^+phosphate buffer (pH 7.4), 100 μl of 1 mM EDTA solution was added followed by 100 μl of 2 mg protein/ml human liver microsomes. A 10 μl aliquot of test compound (20 mM stock in 50% acetonitrile) was diluted further with 40 μl of H2O (total assay volume […]. Assay mixture is incubated for 5 minutes at 37° C. The assay was initiated by addition of 250 μl of 4 mM NADPH solution. Incubation was continued at 37° C. Separate reaction mixtures were prepared for 0, 5, 10, 20, and 30 min durations. Individual reactions were halted by addition of 150 μl of 100% acetonitrile. Internal standard (10 μl of 100 ng/ml diazepam solution) was added. Concentration of the test compound in each separate reaction was measured using LC/MS/MS and a standard curve for the test compound according to standard procedures.
The hepatic intrinsic clearance in liver microsome was determined by the following procedure described by Davies and Morris (Davies, B. and Morris, T. (19930) Physiological parameters in laboratory animals and humans. Pharm Res. 10:1093-1095) detailing the relationship of in vitro clearance to physiological parameters in animals and human subjects.
The amount of compound remaining at each time point was expressed relative to the amount present in the initial (0 min) incubation. The relationship of relative amount vs. time was used to determine the half life of the compound in the microsome assay. The concentration independent rate constant, k1, was determined from rectangular hyperbolic fit:
where T is time (in minutes), from the relationship of relative amount vs. time. Alternatively, k1 was determined from a transform of the equation, where
Conversion to in vivo clearance was obtained from the relation (Davies and Morris, 1993):
where v=velocity of metabolism, [S] is the concentration of the compound, and volumes are expressed in mL.

Bounds are passed on as bounds.

T1 sequence (G3IAK4 22-501): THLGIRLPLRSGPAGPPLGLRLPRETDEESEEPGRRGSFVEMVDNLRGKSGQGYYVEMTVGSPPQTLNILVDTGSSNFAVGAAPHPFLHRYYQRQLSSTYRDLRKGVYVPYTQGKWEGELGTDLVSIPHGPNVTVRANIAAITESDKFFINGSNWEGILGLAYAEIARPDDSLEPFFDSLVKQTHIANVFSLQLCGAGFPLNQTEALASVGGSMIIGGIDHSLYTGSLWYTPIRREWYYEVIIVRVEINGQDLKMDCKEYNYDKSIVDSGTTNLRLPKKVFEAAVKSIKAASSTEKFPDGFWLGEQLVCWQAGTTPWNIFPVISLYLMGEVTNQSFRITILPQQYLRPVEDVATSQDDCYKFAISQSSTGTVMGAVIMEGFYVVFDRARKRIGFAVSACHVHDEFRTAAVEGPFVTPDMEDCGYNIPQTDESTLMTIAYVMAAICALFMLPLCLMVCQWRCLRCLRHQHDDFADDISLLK
Chain of cathepsin D (P07339 65-412, species assumed): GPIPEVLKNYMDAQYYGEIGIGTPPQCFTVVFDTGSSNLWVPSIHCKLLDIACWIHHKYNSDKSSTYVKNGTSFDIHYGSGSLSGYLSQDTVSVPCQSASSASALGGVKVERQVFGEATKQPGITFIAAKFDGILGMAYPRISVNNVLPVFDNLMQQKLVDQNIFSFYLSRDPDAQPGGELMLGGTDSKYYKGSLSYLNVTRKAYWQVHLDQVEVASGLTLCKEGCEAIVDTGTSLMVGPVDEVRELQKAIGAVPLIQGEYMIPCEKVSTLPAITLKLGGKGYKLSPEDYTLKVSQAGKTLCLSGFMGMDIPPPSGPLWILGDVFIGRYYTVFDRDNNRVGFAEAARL
Chain of memapsin 2 (Homo sapiens, UniProt P56817) (P56817 46-501): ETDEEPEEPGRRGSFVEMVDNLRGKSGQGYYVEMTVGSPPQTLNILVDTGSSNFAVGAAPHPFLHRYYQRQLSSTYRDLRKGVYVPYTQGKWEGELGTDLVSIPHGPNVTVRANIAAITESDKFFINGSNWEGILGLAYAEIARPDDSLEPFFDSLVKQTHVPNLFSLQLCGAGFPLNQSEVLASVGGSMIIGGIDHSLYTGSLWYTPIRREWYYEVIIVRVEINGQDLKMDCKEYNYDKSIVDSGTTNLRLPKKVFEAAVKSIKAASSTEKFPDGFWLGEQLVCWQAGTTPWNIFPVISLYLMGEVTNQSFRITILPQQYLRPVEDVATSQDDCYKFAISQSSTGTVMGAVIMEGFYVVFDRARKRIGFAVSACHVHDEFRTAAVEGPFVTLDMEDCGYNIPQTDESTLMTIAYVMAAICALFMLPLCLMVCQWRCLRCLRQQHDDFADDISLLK

Take `Cc1coc([C@H]2CCCN2C(=O)c2cc(C(=O)N[C@@H](Cc3cc(F)cc(F)c3)[C@H](O)[C@H]3CCCN3)cc(-c3ncco3)c2)n1` [1-69, N-((1R,2S)-3-(3,5-difluorophenyl)-1-hydroxy-1-((R)-pyrrolidin-2-yl)propan-2-yl)-3-((R)-2-(4-methyloxazol-2-yl)pyrrolidine-1-carbonyl)-5-(oxazol-2-yl)benzamide]: the figures for the Ki on memapsin 2 [1] and on cathepsin D were less than 250 nM and 300 to 500 nM, respectively.
`Cc1csc([C@H]2CCCN2C(=O)c2cc(C(=O)N[C@@H](Cc3ccccc3)[C@H](O)[C@H]3CCCN3)cc(-c3ncco3)c2)n1` [1-19, N-((1R,2S)-1-hydroxy-3-phenyl-1-((R)-pyrrolidin-2-yl)propan-2-yl)-3-((R)-2-(4-methylthiazol-2-yl)pyrrolidine-1-carbonyl)-5-(oxazol-2-yl)benzamide]: on memapsin 2 [2], the IC50 was less than 500 nM. Further, the results for the Ki on CYP3A4, on memapsin 2 [1] and on cathepsin D were more than 10000 nM, less than 250 nM and more than 500 nM, respectively.
Consider `C=CCO[C@H]1CN[C@@H]([C@@H](O)[C@H](Cc2ccccc2)NC(=O)c2cc(C(=O)N3CCC[C@@H]3c3nc(C)cs3)cc(-c3ncco3)c2)C1` [1-70, N-((1R,2S)-1-((2R,4R)-4-(allyloxy)pyrrolidin-2-yl)-1-hydroxy-3-phenylpropan-2-yl)-3-((R)-2-(4-methylthiazol-2-yl)pyrrolidine-1-carbonyl)-5-(oxazol-2-yl)benzamide], for which the results for the Ki on memapsin 2 [1] and on cathepsin D were less than 250 nM and less than 300 nM, respectively.
Take `Cc1csc([C@H]2CCCN2C(=O)c2cc(C(=O)N[C@@H](Cc3cc(F)cc(F)c3)[C@H](O)[C@H]3CCCN3)cc(-c3ncco3)c2)n1` [1-49, N-((1R,2S)-3-(3,5-difluorophenyl)-1-hydroxy-1-((R)-pyrrolidin-2-yl)propan-2-yl)-3-((R)-2-(4-methylthiazol-2-yl)pyrrolidine-1-carbonyl)-5-(oxazol-2-yl)benzamide]: the IC50 at memapsin 2 [2] is less than 500 nM. Also, the Ki on memapsin 2 [1] was less than 250 nM; on cathepsin D it was less than 300 nM.
As to `Cc1csc([C@H]2CCCN2C(=O)c2cc(C(=O)N[C@@H](Cc3ccccc3)[C@H](O)[C@H]3CCCN3)cc(N(C)S(C)(=O)=O)c2)n1` [1-23, N-((1R,2S)-1-hydroxy-3-phenyl-1-((R)-pyrrolidin-2-yl)propan-2-yl)-3-(N-methylmethylsulfonamido)-5-((R)-2-(4-methylthiazol-2-yl)pyrrolidine-1-carbonyl)benzamide], the IC50 on memapsin 2 [2] is less than 500 nM. The Ki on CYP3A4 is 5000 to 10000 nM; on memapsin 2 [1] it was less than 250 nM; on cathepsin D, more than 500 nM.
On to `Cc1csc([C@H]2CCCN2C(=O)c2cccc(C(=O)N[C@@H](Cc3ccccc3)[C@H](O)[C@H]3C[C@@H](Oc4ccccc4)CN3)c2)n1` [1-74, N-((1R,2S)-1-hydroxy-1-((2R,4R)-4-phenoxypyrrolidin-2-yl)-3-phenylpropan-2-yl)-3-((R)-2-(4-methylthiazol-2-yl)pyrrolidine-1-carbonyl)benzamide], for which the Ki at memapsin 2 [1] is less than 250 nM; on cathepsin D, more than 500 nM.
Taken in the same sequence, the figures for `Cc1cc(C(=O)N[C@@H](Cc2cc(F)cc(F)c2)[C@H](O)[C@H]2CCCN2)cc(C(=O)N2CCC[C@@H]2c2nc(C)cs2)c1` [1-64, N-((1R,2S)-3-(3,5-difluorophenyl)-1-hydroxy-1-((R)-pyrrolidin-2-yl)propan-2-yl)-3-methyl-5-((R)-2-(4-methylthiazol-2-yl)pyrrolidine-1-carbonyl)benzamide] were less than 250 nM and more than 500 nM.
The matching figures for `Cc1csc([C@H]2CCCN2C(=O)c2cc(I)cc(C(=O)N[C@@H](Cc3ccccc3)[C@H](O)[C@H]3CCCN3)c2)n1` [1-71, N-((1R,2S)-1-hydroxy-3-phenyl-1-((R)-pyrrolidin-2-yl)propan-2-yl)-3-iodo-5-((R)-2-(4-methylthiazol-2-yl)pyrrolidine-1-carbonyl)benzamide]: less than 250 nM and more than 500 nM.
In the case of `Cc1csc(CN(C)C(=O)c2cc(C(=O)N[C@@H](Cc3ccccc3)[C@H](O)[C@H]3CCCN3)cc(-n3cccc3)c2)n1` [1-13, N1-((1R,2S)-1-hydroxy-3-phenyl-1-((R)-pyrrolidin-2-yl)propan-2-yl)-N3-methyl-N3-((4-methylthiazol-2-yl)methyl)-5-(1H-pyrrol-1-yl)isophthalamide], in data set [3], the CLint scaled at 200 μM was less than 400 mL/min/kg. Besides, the half-maximal inhibitory concentration (IC50) at memapsin 2 [2] was in the range of 500 to 1000 nM. Besides, the Ki was 5000 to 10000 nM at CYP3A4 and less than 250 nM at memapsin 2 [1].
Regarding `C[C@@H](NC(=O)c1cc(C(=O)N[C@@H](Cc2ccccc2)[C@H](O)[C@H]2CCCN2)cc(N(C)S(C)(=O)=O)c1)c1ccccc1` [1-11, N1-((1R,2S)-1-hydroxy-3-phenyl-1-((R)-pyrrolidin-2-yl)propan-2-yl)-5-(N-methylmethylsulfonamido)-N3-((R)-1-phenylethyl)isophthalamide], the CLint scaled at 200 μM in data set [3] was less than 400 mL/min/kg. Further, the IC50 on memapsin 2 [2] is less than 500 nM. Besides, the Ki at CYP3A4 is more than 10000 nM; at memapsin 2 [1], less than 250 nM.
On to `Cc1csc([C@H]2CCCN2C(=O)c2cc(C(=O)N[C@@H](Cc3ccccc3)[C@H](O)[C@H]3CCCN3)cc(N3CCCCS3(=O)=O)c2)n1` [1-78, N-((1R,2S)-1-hydroxy-3-phenyl-1-((R)-pyrrolidin-2-yl)propan-2-yl)-3-((R)-2-(4-methylthiazol-2-yl)pyrrolidine-1-carbonyl)-5-(thiazinanyl-S,S-dioxide)benzamide], for which the results for the Ki on memapsin 2 [1] and at cathepsin D were less than 250 nM and more than 500 nM, respectively.
With `Cc1csc(CN(C)C(=O)c2cccc(C(=O)N[C@@H](Cc3cc(F)cc(F)c3)[C@H](O)[C@H]3CCCN3)c2)n1` [1-41, N1-((1R,2S)-3-(3,5-difluorophenyl)-1-hydroxy-1-((R)-pyrrolidin-2-yl)propan-2-yl)-N3-methyl-N3-((4-methylthiazol-2-yl)methyl)isophthalamide], the CLint scaled at 200 μM in data set [3] was less than 400 mL/min/kg. Further, the IC50 on memapsin 2 [2] was more than 1000 nM. The Ki at CYP3A4 was more than 10000 nM; at memapsin 2 [1] it was less than 250 nM.
`Cc1csc([C@H]2CCCN2C(=O)c2cc(C(=O)N[C@@H](Cc3ccccc3)[C@H](O)[C@H]3C[C@@H](Oc4ccccc4)CN3)cc(-c3ncco3)c2)n1` [1-79, N-((1R,2S)-1-hydroxy-1-((2R,4R)-4-phenoxypyrrolidin-2-yl)-3-phenylpropan-2-yl)-3-((R)-2-(4-methylthiazol-2-yl)pyrrolidine-1-carbonyl)-5-(oxazol-2-yl)benzamide]: the Ki at memapsin 2 [1] was less than 250 nM; on cathepsin D, 300 to 500 nM.
As to `Cc1coc([C@H]2CCCN2C(=O)c2cc(C(=O)N[C@@H](Cc3ccccc3)[C@H](O)[C@H]3CCCN3)cc(-c3ncco3)c2)n1` [1-17, N-((1R,2S)-1-hydroxy-3-phenyl-1-((R)-pyrrolidin-2-yl)propan-2-yl)-3-((R)-2-(4-methyloxazol-2-yl)pyrrolidine-1-carbonyl)-5-(oxazol-2-yl)benzamide], the CLint scaled at 200 μM in data set [3] is less than 400 mL/min/kg. Also, the IC50 at memapsin 2 [2] is less than 500 nM. Also, the Ki is more than 10000 nM at CYP3A4 and less than 250 nM on memapsin 2 [1].
